Columns and labels:
[1] = system: oligo I, d-(GGGATATATCCC)2, AT-rich oligonucleotide (DNA, duplex) GGGATATATCCC; experiment: ITC; conditions: Na+ 100 mM (NaCl), 10 mM HEPES, pH 7.0, 25°C; for Ka: apparent, (K1K2)^1/2 of two binding events; for binding: 1000 µM ligand titrated into 10 µM DNA, nd
[2] = system: oligo II, d-(GGGCGGCCGCCC)2, GC-rich oligonucleotide (DNA, duplex) GGGCGGCCGCCC; experiment: ITC; conditions: Na+ 100 mM (NaCl), 10 mM HEPES, pH 7.0, 25°C; for binding: 1000 µM ligand titrated into 10 µM DNA, nd

| Structure (SMILES) | Ka [1] | binding [2] | binding constant ([1]; control titration) | binding constant ([2]; control titration) | binding [1] |
| --- | --- | --- | --- | --- | --- |
| Cn1cc(NC(=O)c2cc(NC(=O)c3cccn3C)cn2C)cc1C(=O)NCCCn1cc(CN2CCCNCCNCCCNCC2)nn1 | 2.7±0.3 ×10^5 M^−1 | no | – | – | – |
| Cn1cc(NC(=O)c2cc(NC(=O)c3cccn3C)cn2C)cc1C(=O)NCCCn1cc(CN2CCCNCCNCCCNCC2)nn1.[Cu+2] | 1.2±0.2 ×10^5 M^−1 | no | – | – | – |
| CC[n+]1c(-c2ccccc2)c2cc(N)ccc2c2ccc(N)cc21 | – | – | ~ 0.7×10^5 M^−1 | ~ 0.7×10^5 M^−1 | – |
| Cn1cc(NC(=O)c2cc(NC(=O)c3cccn3C)cn2C)cc1C(=O)NCCCn1cc(CN2CCCNCCNCCCNCC2)nn1.[Zn+2] | 1.5±0.3 ×10^5 M^−1 | no | – | – | – |
| Cn1cc(NC(=O)c2cccn2C)cc1C(=O)NCCCn1cc(CN2CCCNCCNCCCNCC2)nn1 | – | no | – | – | no |
| Cn1cccc1C(=O)NCCCn1cc(CN2CCCNCCNCCCNCC2)nn1 | – | no | – | – | no |

Source: publication PMC3090394 (2011)
